Results published in BindingDB's records for doi:10.1021/acs.jmedchem.1c00124 (Hemoshear Therapeutics, 2021).

Legend:
[1] = Direct inhibition of CYP2D6 in human liver microsomes using bufuralol as substrate
[2] = Direct inhibition of CYP2C8 in human liver microsomes using amodiaquine as substrate
[3] = Time-dependent inhibition of CYP2C9 in human liver microsomes using diclofenac as substrate preincubated for 30 mins
[4] = Time-dependent inhibition of CYP2D6 in human liver microsomes using bufuralol as substrate preincubated for 30 mins
[5] = Direct inhibition of CYP2C19 in human liver microsomes using S-mephenytoin as substrate
[6] = Time-dependent inhibition of CYP2C19 in human liver microsomes using S-mephenytoin as substrate preincubated for 30 mins
[7] = Time-dependent inhibition of CYP1A2 in human liver microsomes using Phenacetin as substrate preincubated for 30 mins
[8] = Direct inhibition of CYP2C9 in human liver microsomes using diclofenac as substrate
[9] = Time-dependent inhibition of CYP2C8 in human liver microsomes using amodiaquine as substrate preincubated for 30 mins
[10] = Direct inhibition of CYP1A2 in human liver microsomes using Phenacetin as substrate

IC50 [1]: > 10 mM
IC50 [2]: > 10 mM
IC50 [3]: > 10 mM
IC50 [4]: > 10 mM
IC50 [5]: > 10 mM
IC50 [6]: > 10 mM
IC50 [7]: > 10 mM
IC50 [8]: > 10 mM
IC50 [9]: > 10 mM
IC50 [10]: > 10 mM
SMILES: CCC(C)(C)C(=O)O [2,2-DIMETHYLBUTYRATE]
